Reference: patent US20250325562A1, “Intravenous Ganaxolone Formulations and Methods of Use in Treating Status Epilepticus and Other Seizure Disorders” (MARINUS PHARMACEUTICALS, INC., priority 2015, published 2025)

How the values were obtained:
[1] = cited from earlier work
[2] = system: pilocarpine induced status epilepticus (SE); assay: Pilocarpine-induced status epilepticus in rats, cortical EEG power; format: in vivo, Male Sprague-Dawley rats; set-up: key to Treatment effect on EEG power vs vehicle, significance: * P < 0.05; ** P < 0.01; *** P < 0.001; **** P < 0.0001; ns = not significant; conditions: 12 mg/kg IV
Method: This study was designed to determine the ability of a CAPTISOL-ganaxolone (GNX) formulation administered intravenously (IV) at 12 and 15 mg/kg to inhibit pilocarpine induced status epilepticus (SE). Allopregnanolone (Allo) (15 mg/kg; IV) was also evaluated for comparison. In this study, test drugs were administered either 15 or 60 minutes after onset of SE and compared to vehicle (30% Captisol).
Cortical EEG activity was recorded in rats before and after administration of pilocarpine to induce SE. Animals were pre-treated with LiCl to enhance and improve reliability of seizure induction and scopolamine to reduce peripheral cholinergic side effects of pilocarpine. EEG activity was recorded for 5 h after SE onset, and anticonvulsant activity was assessed by determining changes in EEG power over frequency ranges from 0.3 to 96 Hz.
Male Sprague-Dawley rats were used for the studies. Rats were surgically implanted with EEG electrodes and jugular vein catheters. The mean weight at the time of recording was 321+3 g (269-351 g).
EEG electrodes were surgically implanted in anesthetized rats. Animals were also treated with an anti-inflammatory anaelgesic (RIMADYL, (carprofen)) prior to surgery and a subcutaneous local anesthetic. Stainless steel screw electrodes chronically were implanted in the skull (0-80×¼″, Plastics-One, Roanoke, VA) such that the ends of the screws were flush with the inner skull surface. One electrode was located 3.0 mm anterior to bregma and 2 mm to the left of midline, and the second 4.0 mm posterior to bregma and 2.5 mm to the right of midline. The skull surface around the electrodes was sealed with super glue and dental acrylic, and the EEG electrode lead wires were inserted into a plastic pedestal mounted on the skull using dental acrylic. Wound edges were treated with triple antibiotic cream (bacitracin zinc, neomycin sulfate, polymyxin B sulfate; Walgreens). Following surgery, animals were administered antibiotic (ampicillin, 50 mg/kg IP at 0.4 mL/kg) and also received a chewable dose (˜10 mg) of Rimadyl following surgery. The animals were allowed to recover from EEG surgery for 1 week.
Rats were implanted with jugular-vein catheters (JVC) one week following EEG surgery. Rats were administered an anti-inflammatory/analgesic and then anesthetized and placed in a supine position. An incision was made in the skin on the right ventrolateral aspect of the neck to expose the external jugular vein which was then dissected free of surrounding fascia. A ligature was tied around the vein anteriorly to occlude blood flow returning to the heart. A second ligature was loosely tied around the vein posteriorly to create tension on the vessel during venotomy and catheter insertion. After incising the vein, a PE catheter (3Fr) was inserted into the vein and advanced approximately 30 mm towards the heart, positioning the tip at the junction of the precava and right atrium. After confirming patency of the catheter by blood withdrawal, the posterior ligature was tied off, and the catheter flushed with a “heparin-lock” solution (5 units heparin/ml saline) and plugged with a sterilized stainless steel pin. The catheter was then exteriorized by tunneling through the subcutaneous tissue to exit posterior to the head between the shoulder blades. Lastly, after suturing the catheter to the skin, all wounds were closed using sutures or wound clips. Immediately following surgery, the animals were awakened to assess catheter patency. Animals also received a chewable dose (˜10 mg) of Rimadyl following surgery to minimize pain and inflammation.
Animals were allowed a 1-week recovery time following JVC surgery. Jugular vein catheters were flushed daily with a 0.1 mL of heparin solution (5 units/mL) to maintain patency. On the day of surgery, the flushing solution contained ampicillin sulbactam (50 mg/kg). […]

Compound: CC(=O)[C@H]1CC[C@H]2[C@@H]3CC[C@H]4C[C@](C)(O)CC[C@]4(C)[C@H]3CC[C@]12C [Ganaxolone, 3α-hydroxy, 3β-methyl-5α-pregnan-20-one]
- half-life ([1]; human plasma following oral administration): approximately 20 hours
- Tmax ([1]; therapeutic blood levels are reached quickly): short
- Treatment effect on EEG power vs vehicle, significance ([2]; 15 min post SE onset, 0-5 Hz, 0-15 min. post drug): **** (**** P < 0.0001)
- Treatment effect on EEG power vs vehicle, significance ([2]; 15 min post SE onset, 0-5 Hz, 1-2 hrs post drug): **** (**** P < 0.0001)
- Treatment effect on EEG power vs vehicle, significance ([2]; 15 min post SE onset, 0-5 Hz, 2-3 hrs post drug): *** (*** P < 0.001)
- Treatment effect on EEG power vs vehicle, significance ([2]; 15 min post SE onset, 0-5 Hz, 3-5 hrs post drug): ** (** P < 0.01)
- Treatment effect on EEG power vs vehicle, significance ([2]; 15 min post SE onset, 0-5 Hz, 15-30 min post drug): **** (**** P < 0.0001)
- Treatment effect on EEG power vs vehicle, significance ([2]; 15 min post SE onset, 0-5 Hz, 30-60 min post drug): **** (**** P < 0.0001)
- Treatment effect on EEG power vs vehicle, significance ([2]; 15 min post SE onset, 5-10 Hz, 0-15 min. post drug): **** (**** P < 0.0001)
- Treatment effect on EEG power vs vehicle, significance ([2]; 15 min post SE onset, 5-10 Hz, 1-2 hrs post drug): ** (** P < 0.01)
- Treatment effect on EEG power vs vehicle, significance ([2]; 15 min post SE onset, 5-10 Hz, 2-3 hrs post drug): * (* P < 0.05)
- Treatment effect on EEG power vs vehicle, significance ([2]; 15 min post SE onset, 5-10 Hz, 3-5 hrs post drug): ns
- Treatment effect on EEG power vs vehicle, significance ([2]; 15 min post SE onset, 5-10 Hz, 15-30 min post drug): **** (**** P < 0.0001)
- Treatment effect on EEG power vs vehicle, significance ([2]; 15 min post SE onset, 5-10 Hz, 30-60 min post drug): *** (*** P < 0.001)
- Treatment effect on EEG power vs vehicle, significance ([2]; 15 min post SE onset, 10-30 Hz, 0-15 min. post drug): *** (*** P < 0.001)
- Treatment effect on EEG power vs vehicle, significance ([2]; 15 min post SE onset, 10-30 Hz, 1-2 hrs post drug): * (* P < 0.05)
- Treatment effect on EEG power vs vehicle, significance ([2]; 15 min post SE onset, 10-30 Hz, 2-3 hrs post drug): ns
- Treatment effect on EEG power vs vehicle, significance ([2]; 15 min post SE onset, 10-30 Hz, 3-5 hrs post drug): ns
- Treatment effect on EEG power vs vehicle, significance ([2]; 15 min post SE onset, 10-30 Hz, 15-30 min post drug): **** (**** P < 0.0001)
- Treatment effect on EEG power vs vehicle, significance ([2]; 15 min post SE onset, 10-30 Hz, 30-60 min post drug): ** (** P < 0.01)
- Treatment effect on EEG power vs vehicle, significance ([2]; 15 min post SE onset, 30-50 Hz, 0-15 min. post drug): *** (*** P < 0.001)
- Treatment effect on EEG power vs vehicle, significance ([2]; 15 min post SE onset, 30-50 Hz, 1-2 hrs post drug): * (* P < 0.05)
- Treatment effect on EEG power vs vehicle, significance ([2]; 15 min post SE onset, 30-50 Hz, 2-3 hrs post drug): ns
- Treatment effect on EEG power vs vehicle, significance ([2]; 15 min post SE onset, 30-50 Hz, 3-5 hrs post drug): ns
- Treatment effect on EEG power vs vehicle, significance ([2]; 15 min post SE onset, 30-50 Hz, 15-30 min post drug): *** (*** P < 0.001)
- Treatment effect on EEG power vs vehicle, significance ([2]; 15 min post SE onset, 30-50 Hz, 30-60 min post drug): ** (** P < 0.01)
- Treatment effect on EEG power vs vehicle, significance ([2]; 15 min post SE onset, 50-70 Hz, 0-15 min. post drug): ** (** P < 0.01)
- Treatment effect on EEG power vs vehicle, significance ([2]; 15 min post SE onset, 50-70 Hz, 1-2 hrs post drug): ** (** P < 0.01)
- Treatment effect on EEG power vs vehicle, significance ([2]; 15 min post SE onset, 50-70 Hz, 2-3 hrs post drug): ns
- Treatment effect on EEG power vs vehicle, significance ([2]; 15 min post SE onset, 50-70 Hz, 3-5 hrs post drug): ns
- Treatment effect on EEG power vs vehicle, significance ([2]; 15 min post SE onset, 50-70 Hz, 15-30 min post drug): ** (** P < 0.01)
- Treatment effect on EEG power vs vehicle, significance ([2]; 15 min post SE onset, 50-70 Hz, 30-60 min post drug): * (* P < 0.05)
- Treatment effect on EEG power vs vehicle, significance ([2]; 15 min post SE onset, 70-96 Hz, 0-15 min. post drug): ** (** P < 0.01)
- Treatment effect on EEG power vs vehicle, significance ([2]; 15 min post SE onset, 70-96 Hz, 1-2 hrs post drug): ** (** P < 0.01)
- Treatment effect on EEG power vs vehicle, significance ([2]; 15 min post SE onset, 70-96 Hz, 2-3 hrs post drug): ns
- Treatment effect on EEG power vs vehicle, significance ([2]; 15 min post SE onset, 70-96 Hz, 3-5 hrs post drug): ns
- Treatment effect on EEG power vs vehicle, significance ([2]; 15 min post SE onset, 70-96 Hz, 15-30 min post drug): ** (** P < 0.01)
- Treatment effect on EEG power vs vehicle, significance ([2]; 15 min post SE onset, 70-96 Hz, 30-60 min post drug): * (* P < 0.05)
- Treatment effect on EEG power vs vehicle, significance ([2]; 60 min post SE onset, 0-5 Hz, 0-15 min. post drug): *** (*** P < 0.001)
- Treatment effect on EEG power vs vehicle, significance ([2]; 60 min post SE onset, 0-5 Hz, 1-2 hrs post drug): **** (**** P < 0.0001)
- Treatment effect on EEG power vs vehicle, significance ([2]; 60 min post SE onset, 0-5 Hz, 2-3 hrs post drug): *** (*** P < 0.001)
- Treatment effect on EEG power vs vehicle, significance ([2]; 60 min post SE onset, 0-5 Hz, 3-5 hrs post drug): ** (** P < 0.01)
- Treatment effect on EEG power vs vehicle, significance ([2]; 60 min post SE onset, 0-5 Hz, 15-30 min post drug): **** (**** P < 0.0001)
- Treatment effect on EEG power vs vehicle, significance ([2]; 60 min post SE onset, 0-5 Hz, 30-60 min post drug): **** (**** P < 0.0001)
- Treatment effect on EEG power vs vehicle, significance ([2]; 60 min post SE onset, 5-10 Hz, 0-15 min. post drug): **** (**** P < 0.0001)
- Treatment effect on EEG power vs vehicle, significance ([2]; 60 min post SE onset, 5-10 Hz, 1-2 hrs post drug): *** (*** P < 0.001)
- Treatment effect on EEG power vs vehicle, significance ([2]; 60 min post SE onset, 5-10 Hz, 2-3 hrs post drug): ** (** P < 0.01)
- Treatment effect on EEG power vs vehicle, significance ([2]; 60 min post SE onset, 5-10 Hz, 3-5 hrs post drug): ns
- Treatment effect on EEG power vs vehicle, significance ([2]; 60 min post SE onset, 5-10 Hz, 15-30 min post drug): **** (**** P < 0.0001)
- Treatment effect on EEG power vs vehicle, significance ([2]; 60 min post SE onset, 5-10 Hz, 30-60 min post drug): **** (**** P < 0.0001)
- Treatment effect on EEG power vs vehicle, significance ([2]; 60 min post SE onset, 10-30 Hz, 0-15 min. post drug): * (* P < 0.05)
- Treatment effect on EEG power vs vehicle, significance ([2]; 60 min post SE onset, 10-30 Hz, 1-2 hrs post drug): ** (** P < 0.01)
